Data as given in patent US20070054899A1 (priority 2003, published 2007).
Like-named read-outs stand apart in the source and are kept apart here. Values belong to the compound of their own block, whether it stands above or below them.

Columns and labels:
[1] = target: T1, aromatase (microsomes from the human placenta) (Homo sapiens, UniProt P11511); test: Aromatase inhibition in vitro, tritiated water method, human placenta microsomes; type: biochemical
T1 construct: using microsomes from the human placenta as source of the enzyme; from tissue; host or cells: human placenta microsomes
T1 sequence (P11511 1-503): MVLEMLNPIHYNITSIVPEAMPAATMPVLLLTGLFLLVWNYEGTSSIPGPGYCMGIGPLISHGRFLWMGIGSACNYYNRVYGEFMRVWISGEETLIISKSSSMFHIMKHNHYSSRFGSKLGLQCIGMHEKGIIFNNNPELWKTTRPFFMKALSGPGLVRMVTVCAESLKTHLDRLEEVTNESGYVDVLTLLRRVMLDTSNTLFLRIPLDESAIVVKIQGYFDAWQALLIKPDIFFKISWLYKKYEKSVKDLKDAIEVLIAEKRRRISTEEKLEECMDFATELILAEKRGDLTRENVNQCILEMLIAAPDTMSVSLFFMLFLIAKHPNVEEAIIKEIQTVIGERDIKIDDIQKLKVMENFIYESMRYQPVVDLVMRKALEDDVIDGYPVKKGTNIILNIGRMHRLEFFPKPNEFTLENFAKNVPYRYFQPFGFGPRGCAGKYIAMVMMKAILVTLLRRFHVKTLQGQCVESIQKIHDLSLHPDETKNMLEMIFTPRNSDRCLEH

[2] = tested on: uterine hypertrophy induced by androstenedione; test: Activity in vivo: inhibition of uterine hypertrophy induced by androstenedione; design: species or system rat (Sprague-Dawley); settings: Rattus norvegicus, 96 h, immature female rats, androstenedione 30 mg/kg for 4 days, read-out: % inhibition to doses (μg/Kg); for inhibition in vivo at 0.001 mg/kg: dose 1 μg/Kg; for inhibition in vivo at 0.01 mg/kg: dose 10 μg/Kg; for inhibition in vivo at 0.1 mg/kg: dose 100 μg/Kg; for inhibition in vivo at 1 mg/kg: dose 1000 μg/Kg
Description: The activity in vivo of aromatase inhibition by compounds of formula (I) according to the invention has been tested according to the model established by Bharnagar et al. (1990).
In general, immature female rats of the Sprague-Dawley line of a weight ranging from 40 to 50 g have been treated with a dose of androstenedione at 30 mg/kg for 4 days, in the absence or in the presence of doses of various compounds of formula (I).
Four hours after administration of an aromatase inhibitor, the rats were sacrificed. Their uteruses were removed, cleared of adhering fat and conjunctive tissue, next the uteruses were weighed (wet weight). The dry weight of the uteruses was determined the following day after a step of drying for one night at 80° C.

[3] = target: aromatase (e) (UniProt O46512); type: biochemical; settings: value marked (e); read-out: Activity In vitro IC50(nM), (e)
[4] = value without (h)/(e) mark, read-out: Activity In vitro IC50
[5] = value marked (h), read-out: Activity In vitro IC50(nM), (h)

Sequence of aromatase (e) (O46512 whole entry): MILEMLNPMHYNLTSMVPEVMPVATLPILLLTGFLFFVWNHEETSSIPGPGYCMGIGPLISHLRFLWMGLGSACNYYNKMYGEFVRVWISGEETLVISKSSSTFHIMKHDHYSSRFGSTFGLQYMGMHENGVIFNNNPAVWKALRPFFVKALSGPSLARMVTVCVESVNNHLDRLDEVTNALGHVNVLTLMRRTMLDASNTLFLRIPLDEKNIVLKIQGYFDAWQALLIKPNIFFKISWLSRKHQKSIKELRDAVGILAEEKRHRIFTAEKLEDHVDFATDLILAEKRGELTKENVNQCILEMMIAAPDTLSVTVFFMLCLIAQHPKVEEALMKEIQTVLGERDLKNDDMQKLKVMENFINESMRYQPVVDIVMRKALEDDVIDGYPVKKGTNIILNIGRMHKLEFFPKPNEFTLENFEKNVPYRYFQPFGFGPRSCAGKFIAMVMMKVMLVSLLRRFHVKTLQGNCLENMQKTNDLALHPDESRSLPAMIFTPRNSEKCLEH

Structure (SMILES): Cn1c(=O)[se]c2cc(C(c3ccc(C#N)cc3)n3cncn3)ccc21 (centres unmarked) [PCH300, 4-[(3-Methyl-2-oxo-2,3-dihydro-1,3-benzoselenazol-6-yl)(1H-1,2,4-triazol-1-yl)methyl]benzonitrile]
melting point: 154 to 158 °C | IC50 [1, 4]: 4.64 nM | inhibition in vivo at 0.001 mg/kg [2]: 49% | inhibition in vivo at 0.01 mg/kg [2]: 86% | inhibition in vivo at 0.1 mg/kg [2]: 91%

melting point: 79 to 82 °C | IC50 [1, 4]: 3.7 nM
Structure (SMILES): CCn1c(=O)[se]c2cc(C(c3ccc([N+](=O)[O-])cc3)n3cncn3)ccc21 (centres unmarked) [PCH305, 3-Ethyl-6-[(4-nitrophenyl)(1H-1,2,4-triazol-1-yl)methyl]-1,3-benzoselenazol-2(3H)-one]

Structure (SMILES): Cn1c(=O)oc2cc(C(c3cccc(C#N)c3)n3ccnc3)ccc21 (centres unmarked) [PC122]
IC50 [3]: 23.2 nM | IC50 [1, 5]: 18.6 nM | inhibition in vivo at 0.01 mg/kg [2]: 39% | inhibition in vivo at 0.1 mg/kg [2]: 58% | inhibition in vivo at 1 mg/kg [2]: 92%

melting point: 122 to 125 °C | IC50 [1, 4]: 5.78 nM
Structure (SMILES): Cn1c(=O)sc2ccc(C(c3ccc(C#N)cc3)n3cncn3)cc21 (centres unmarked) [PCH163, 4-[(3-Methyl-2-oxo-2,3-dihydro-1,3-benzothiazol-5-yl)(1H-1,2,4-triazol-1-yl)methyl]benzonitrile]
inhibition in vivo at 0.001 mg/kg [2]: 57% | inhibition in vivo at 0.01 mg/kg [2]: 83% | inhibition in vivo at 0.1 mg/kg [2]: 95%

melting point: 125 to 127 °C | IC50 [1, 4]: 5.51 nM
Structure (SMILES): CCn1c(=O)sc2ccc(C(c3ccc(C#N)cc3)n3cncn3)cc21 (centres unmarked) [PCH246, 4-[(3-Ethyl-2-oxo-2,3-dihydro-1,3-benzothiazol-5-yl)(1H-1,2,4-triazol-1-yl)methyl]benzonitrile]
inhibition in vivo at 0.001 mg/kg [2]: 22% | inhibition in vivo at 0.01 mg/kg [2]: 45% | inhibition in vivo at 0.1 mg/kg [2]: 91%

Structure (SMILES): CCn1c(=O)[se]c2cc(C(c3ccc(C#N)cc3)n3cncn3)ccc21 (centres unmarked) [PC11303, 4-[(3-Ethyl-2-oxo-2,3-dihydro-1,3-benzoselenazol-6-yl)(1H-1,2,4-triazol-1-yl)methyl]benzonitrile]
melting point: 95 to 98 °C | IC50 [1, 4]: 3.99 nM | inhibition in vivo at 0.001 mg/kg [2]: 38% | inhibition in vivo at 0.01 mg/kg [2]: 60% | inhibition in vivo at 0.1 mg/kg [2]: 71%

Structure (SMILES): N#Cc1ccc(C(c2ccc3[nH]c(=O)[se]c3c2)n2cncn2)cc1 (centres unmarked) [PCH302, 4-[(2-oxo-2,3-dihydro-1,3-benzoselenazol-6-yl)(1H-1,2,4-triazol-1-yl)methyl]benzonitrile]
melting point: 223 to 226 °C | IC50 [1, 4]: 6.53 nM | inhibition in vivo at 0.001 mg/kg [2]: 45% | inhibition in vivo at 0.01 mg/kg [2]: 20% | inhibition in vivo at 0.1 mg/kg [2]: 63%

Structure (SMILES): O=c1[nH]c2cc(C(c3ccccc3)n3ccnc3)ccc2o1 (centres unmarked) [PCH124, 5-[1H-Imidazol-1-yl(phenyl)methyl]-1,3-benzoxazol-2(3H)-one]
IC50 [3]: 14.1 nM | IC50 [1, 5]: 14.9 nM | inhibition in vivo at 0.01 mg/kg [2]: 34% | inhibition in vivo at 0.1 mg/kg [2]: 71% | inhibition in vivo at 1 mg/kg [2]: 92%

melting point: 190 to 195 °C | IC50 [1, 4]: 3.64 nM
Structure (SMILES): Cn1c(=O)[se]c2cc(C(c3ccc([N+](=O)[O-])cc3)n3cncn3)ccc21 (centres unmarked) [PCH304, 3-Methyl-6-[(4-nitrophenyl)(1H-1,2,4-triazol-1-yl)methyl]-1,3-benzoselenazol-2(3H)-one]

Structure (SMILES): N#Cc1ccc(C(c2ccc3[nH]c(=O)oc3c2)n2ccnc2)cc1 (centres unmarked) [PCH113, 6-[(4-Cyanophenyl)(1H-imidazol-1-yl)methyl]-1,3-benzoxazol-2(3H)-one]
IC50 [3]: 14.6 nM | IC50 [1, 5]: 13.2 nM | inhibition in vivo at 0.01 mg/kg [2]: 19% | inhibition in vivo at 0.1 mg/kg [2]: 50% | inhibition in vivo at 1 mg/kg [2]: 94%
